Measurements reported in ChEMBL document CHEMBL1148972, “Isomalabaricane-type compounds from the marine sponge Rhabdastrella aff. distincta” (J Nat Prod, 2004).
In brackets after ≈: the same amount, converted by molar mass.

Tested on: HL-60
Experiment: Cytotoxicity against human HL60 cells after 48 hrs by MTT assay
Format: functional, cell-based
Details: HL-60, 48 h

With `COC(=O)/C(C)=C/C=C/C(C)=C/C=C/C(C)=C1/C(=O)C[C@H]2[C@@]3(C)CCC(=O)C(C)(C)[C@@H]3CC[C@]12C` [RHABDASTRELLIC ACID A METHYL ESTER] as the compound, how does the IC50 read?
Its IC50 is over 5 µg/mL.

With `CC(/C=C/C=C(\C)C(=O)O)=C\C=C\C(C)=C1\C(=O)C[C@H]2[C@@]3(C)CCC(=O)C(C)(C)[C@@H]3CC[C@]12C` [RHABDASTRELLIC ACID A] as the compound, how does the IC50 read?
The IC50 was over 5 µg/mL.

With `C\C(=C/C=C/C(C)=C1/C(=O)C[C@H]2[C@@]3(C)CCC(=O)C(C)(C)[C@@H]3CC[C@]12C)c1ccc(C)c(=O)o1` [STELLETIN A] as the compound, how does the IC50 read?
Its IC50 is over 5 µg/mL.

Which IC50 does the source give for `CC(/C=C/C=C(C)/C=C/C=C(\C)C(=O)O)=C1/C(=O)C[C@H]2[C@@]3(C)CCC(=O)C(C)(C)[C@@H]3CC[C@]12C` [STELLETIN E] here?
The IC50 was over 5 µg/mL.

With `CC(/C=C/C=C(\C)c1ccc(C)c(=O)o1)=C1/C(=O)C[C@H]2[C@@]3(C)CCC(=O)C(C)(C)[C@@H]3CC[C@]12C` [STELLETTIN B] as the compound, how does the IC50 read?
Its IC50 is 0.2 µg/mL (≈ 0.432 µM).

With `CC(=O)O[C@H]1CC[C@@]2(C)[C@@H](CC[C@]3(C)\C(=C(C)/C=C/C=C(\C)c4ccc(C)c(=O)o4)C(=O)C[C@@H]23)C1(C)C` [STELLETTIN C] as the compound, how does the IC50 read?
The IC50 was over 5 µg/mL.

With `COC(=O)/C(C)=C/C=C/C(C)=C/C=C/C(C)=C1\C(=O)C[C@H]2[C@@]3(C)CCC(=O)C(C)(C)[C@@H]3CC[C@]12C` [STELLETTIN E METHYL ESTER] as the compound, how does the IC50 read?
The IC50 was 4.2 µg/mL (≈ 8.77 µM).

Tested on: not listed separately
Experiment: Cytotoxicity against human PC-3MIE8 cells after 48 hrs by MTT assay
Format: functional, cell-based
Details: PC-3MIE8, 48 h

With `COC(=O)/C(C)=C/C=C/C(C)=C/C=C/C(C)=C1/C(=O)C[C@H]2[C@@]3(C)CCC(=O)C(C)(C)[C@@H]3CC[C@]12C` [RHABDASTRELLIC ACID A METHYL ESTER] as the compound, how does the IC50 read?
Its IC50 is over 5 µg/mL.

For `CC(/C=C/C=C(\C)C(=O)O)=C\C=C\C(C)=C1\C(=O)C[C@H]2[C@@]3(C)CCC(=O)C(C)(C)[C@@H]3CC[C@]12C` [RHABDASTRELLIC ACID A], which IC50 is on record?
Its IC50 is over 5 µg/mL.

With `C\C(=C/C=C/C(C)=C1/C(=O)C[C@H]2[C@@]3(C)CCC(=O)C(C)(C)[C@@H]3CC[C@]12C)c1ccc(C)c(=O)o1` [STELLETIN A] as the compound, how does the IC50 read?
The IC50 was over 5 µg/mL.

With `CC(/C=C/C=C(C)/C=C/C=C(\C)C(=O)O)=C1/C(=O)C[C@H]2[C@@]3(C)CCC(=O)C(C)(C)[C@@H]3CC[C@]12C` [STELLETIN E] as the compound, how does the IC50 read?
Its IC50 is over 5 µg/mL.

For `CC(/C=C/C=C(\C)c1ccc(C)c(=O)o1)=C1/C(=O)C[C@H]2[C@@]3(C)CCC(=O)C(C)(C)[C@@H]3CC[C@]12C` [STELLETTIN B], which IC50 is on record?
Its IC50 is over 5 µg/mL.

With `CC(=O)O[C@H]1CC[C@@]2(C)[C@@H](CC[C@]3(C)\C(=C(C)/C=C/C=C(\C)c4ccc(C)c(=O)o4)C(=O)C[C@@H]23)C1(C)C` [STELLETTIN C] as the compound, how does the IC50 read?
The IC50 was 3.1 µg/mL (≈ 6.12 µM).

Which IC50 does the source give for `COC(=O)/C(C)=C/C=C/C(C)=C/C=C/C(C)=C1\C(=O)C[C@H]2[C@@]3(C)CCC(=O)C(C)(C)[C@@H]3CC[C@]12C` [STELLETTIN E METHYL ESTER] here?
The IC50 was over 5 µg/mL.

Tested on: BGC-823
Experiment: Cytotoxicity against human BGC823 cells after 48 hrs by MTT assay
Format: functional, cell-based
Details: BGC-823, 48 h

For `COC(=O)/C(C)=C/C=C/C(C)=C/C=C/C(C)=C1/C(=O)C[C@H]2[C@@]3(C)CCC(=O)C(C)(C)[C@@H]3CC[C@]12C` [RHABDASTRELLIC ACID A METHYL ESTER], which IC50 is on record?
The IC50 was over 5 µg/mL.

For `CC(/C=C/C=C(\C)C(=O)O)=C\C=C\C(C)=C1\C(=O)C[C@H]2[C@@]3(C)CCC(=O)C(C)(C)[C@@H]3CC[C@]12C` [RHABDASTRELLIC ACID A], which IC50 is on record?
The IC50 was over 5 µg/mL.

For `C\C(=C/C=C/C(C)=C1/C(=O)C[C@H]2[C@@]3(C)CCC(=O)C(C)(C)[C@@H]3CC[C@]12C)c1ccc(C)c(=O)o1` [STELLETIN A], which IC50 is on record?
The IC50 was over 5 µg/mL.

For `CC(/C=C/C=C(C)/C=C/C=C(\C)C(=O)O)=C1/C(=O)C[C@H]2[C@@]3(C)CCC(=O)C(C)(C)[C@@H]3CC[C@]12C` [STELLETIN E], which IC50 is on record?
The IC50 was over 5 µg/mL.

For `CC(/C=C/C=C(\C)c1ccc(C)c(=O)o1)=C1/C(=O)C[C@H]2[C@@]3(C)CCC(=O)C(C)(C)[C@@H]3CC[C@]12C` [STELLETTIN B], which IC50 is on record?
Its IC50 is over 5 µg/mL.

With `CC(=O)O[C@H]1CC[C@@]2(C)[C@@H](CC[C@]3(C)\C(=C(C)/C=C/C=C(\C)c4ccc(C)c(=O)o4)C(=O)C[C@@H]23)C1(C)C` [STELLETTIN C] as the compound, how does the IC50 read?
The IC50 was over 5 µg/mL.

For `COC(=O)/C(C)=C/C=C/C(C)=C/C=C/C(C)=C1\C(=O)C[C@H]2[C@@]3(C)CCC(=O)C(C)(C)[C@@H]3CC[C@]12C` [STELLETTIN E METHYL ESTER], which IC50 is on record?
Its IC50 is over 5 µg/mL.

Tested on: not listed separately
Experiment: Cytotoxicity against human […] cells after 48 hrs by MTT assay
Format: functional, cell-based
Details: not given

Which IC50 does the source give for `COC(=O)/C(C)=C/C=C/C(C)=C/C=C/C(C)=C1/C(=O)C[C@H]2[C@@]3(C)CCC(=O)C(C)(C)[C@@H]3CC[C@]12C` [RHABDASTRELLIC ACID A METHYL ESTER] here?
Its IC50 is over 5 µg/mL.

Which IC50 does the source give for `CC(/C=C/C=C(\C)C(=O)O)=C\C=C\C(C)=C1\C(=O)C[C@H]2[C@@]3(C)CCC(=O)C(C)(C)[C@@H]3CC[C@]12C` [RHABDASTRELLIC ACID A] here?
Its IC50 is over 5 µg/mL.

For `C\C(=C/C=C/C(C)=C1/C(=O)C[C@H]2[C@@]3(C)CCC(=O)C(C)(C)[C@@H]3CC[C@]12C)c1ccc(C)c(=O)o1` [STELLETIN A], which IC50 is on record?
The IC50 was over 5 µg/mL.

With `CC(/C=C/C=C(C)/C=C/C=C(\C)C(=O)O)=C1/C(=O)C[C@H]2[C@@]3(C)CCC(=O)C(C)(C)[C@@H]3CC[C@]12C` [STELLETIN E] as the compound, how does the IC50 read?
The IC50 was over 5 µg/mL.

With `CC(/C=C/C=C(\C)c1ccc(C)c(=O)o1)=C1/C(=O)C[C@H]2[C@@]3(C)CCC(=O)C(C)(C)[C@@H]3CC[C@]12C` [STELLETTIN B] as the compound, how does the IC50 read?
Its IC50 is over 5 µg/mL.

For `CC(=O)O[C@H]1CC[C@@]2(C)[C@@H](CC[C@]3(C)\C(=C(C)/C=C/C=C(\C)c4ccc(C)c(=O)o4)C(=O)C[C@@H]23)C1(C)C` [STELLETTIN C], which IC50 is on record?
The IC50 was over 5 µg/mL.

Which IC50 does the source give for `COC(=O)/C(C)=C/C=C/C(C)=C/C=C/C(C)=C1\C(=O)C[C@H]2[C@@]3(C)CCC(=O)C(C)(C)[C@@H]3CC[C@]12C` [STELLETTIN E METHYL ESTER] here?
Its IC50 is over 5 µg/mL.

Tested on: Bel-7402
Experiment: Cytotoxicity against human Bel7402 cells after 48 hrs by MTT assay
Format: functional, cell-based
Details: Bel-7402, 48 h

With `COC(=O)/C(C)=C/C=C/C(C)=C/C=C/C(C)=C1/C(=O)C[C@H]2[C@@]3(C)CCC(=O)C(C)(C)[C@@H]3CC[C@]12C` [RHABDASTRELLIC ACID A METHYL ESTER] as the compound, how does the IC50 read?
Its IC50 is over 5 µg/mL.

For `CC(/C=C/C=C(\C)C(=O)O)=C\C=C\C(C)=C1\C(=O)C[C@H]2[C@@]3(C)CCC(=O)C(C)(C)[C@@H]3CC[C@]12C` [RHABDASTRELLIC ACID A], which IC50 is on record?
The IC50 was over 5 µg/mL.

For `C\C(=C/C=C/C(C)=C1/C(=O)C[C@H]2[C@@]3(C)CCC(=O)C(C)(C)[C@@H]3CC[C@]12C)c1ccc(C)c(=O)o1` [STELLETIN A], which IC50 is on record?
Its IC50 is over 5 µg/mL.

For `CC(/C=C/C=C(C)/C=C/C=C(\C)C(=O)O)=C1/C(=O)C[C@H]2[C@@]3(C)CCC(=O)C(C)(C)[C@@H]3CC[C@]12C` [STELLETIN E], which IC50 is on record?
The IC50 was over 5 µg/mL.

For `CC(/C=C/C=C(\C)c1ccc(C)c(=O)o1)=C1/C(=O)C[C@H]2[C@@]3(C)CCC(=O)C(C)(C)[C@@H]3CC[C@]12C` [STELLETTIN B], which IC50 is on record?
Its IC50 is over 5 µg/mL.

For `CC(=O)O[C@H]1CC[C@@]2(C)[C@@H](CC[C@]3(C)\C(=C(C)/C=C/C=C(\C)c4ccc(C)c(=O)o4)C(=O)C[C@@H]23)C1(C)C` [STELLETTIN C], which IC50 is on record?
Its IC50 is over 5 µg/mL.

With `COC(=O)/C(C)=C/C=C/C(C)=C/C=C/C(C)=C1\C(=O)C[C@H]2[C@@]3(C)CCC(=O)C(C)(C)[C@@H]3CC[C@]12C` [STELLETTIN E METHYL ESTER] as the compound, how does the IC50 read?
The IC50 was over 5 µg/mL.

Tested on: HeLa
Experiment: Cytotoxicity against human HeLa cells after 48 hrs by MTT assay
Format: functional, cell-based
Details: not given

Which IC50 does the source give for `COC(=O)/C(C)=C/C=C/C(C)=C/C=C/C(C)=C1/C(=O)C[C@H]2[C@@]3(C)CCC(=O)C(C)(C)[C@@H]3CC[C@]12C` [RHABDASTRELLIC ACID A METHYL ESTER] here?
Its IC50 is over 5 µg/mL.

Which IC50 does the source give for `CC(/C=C/C=C(\C)C(=O)O)=C\C=C\C(C)=C1\C(=O)C[C@H]2[C@@]3(C)CCC(=O)C(C)(C)[C@@H]3CC[C@]12C` [RHABDASTRELLIC ACID A] here?
Its IC50 is over 5 µg/mL.

For `C\C(=C/C=C/C(C)=C1/C(=O)C[C@H]2[C@@]3(C)CCC(=O)C(C)(C)[C@@H]3CC[C@]12C)c1ccc(C)c(=O)o1` [STELLETIN A], which IC50 is on record?
Its IC50 is over 5 µg/mL.

With `CC(/C=C/C=C(C)/C=C/C=C(\C)C(=O)O)=C1/C(=O)C[C@H]2[C@@]3(C)CCC(=O)C(C)(C)[C@@H]3CC[C@]12C` [STELLETIN E] as the compound, how does the IC50 read?
Its IC50 is over 5 µg/mL.

Which IC50 does the source give for `CC(/C=C/C=C(\C)c1ccc(C)c(=O)o1)=C1/C(=O)C[C@H]2[C@@]3(C)CCC(=O)C(C)(C)[C@@H]3CC[C@]12C` [STELLETTIN B] here?
Its IC50 is over 5 µg/mL.

Which IC50 does the source give for `CC(=O)O[C@H]1CC[C@@]2(C)[C@@H](CC[C@]3(C)\C(=C(C)/C=C/C=C(\C)c4ccc(C)c(=O)o4)C(=O)C[C@@H]23)C1(C)C` [STELLETTIN C] here?
The IC50 was over 5 µg/mL.

For `COC(=O)/C(C)=C/C=C/C(C)=C/C=C/C(C)=C1\C(=O)C[C@H]2[C@@]3(C)CCC(=O)C(C)(C)[C@@H]3CC[C@]12C` [STELLETTIN E METHYL ESTER], which IC50 is on record?
The IC50 was over 5 µg/mL.
